Bounds are passed on as bounds.

One may read the EC50 as the concentration giving half of the maximal effect.

Chain of recombinant EZH2-641F complex (EZH2 Y641F/EED/SUZ12/RbAp48/AEBP2) (Q15910 whole entry Y641F): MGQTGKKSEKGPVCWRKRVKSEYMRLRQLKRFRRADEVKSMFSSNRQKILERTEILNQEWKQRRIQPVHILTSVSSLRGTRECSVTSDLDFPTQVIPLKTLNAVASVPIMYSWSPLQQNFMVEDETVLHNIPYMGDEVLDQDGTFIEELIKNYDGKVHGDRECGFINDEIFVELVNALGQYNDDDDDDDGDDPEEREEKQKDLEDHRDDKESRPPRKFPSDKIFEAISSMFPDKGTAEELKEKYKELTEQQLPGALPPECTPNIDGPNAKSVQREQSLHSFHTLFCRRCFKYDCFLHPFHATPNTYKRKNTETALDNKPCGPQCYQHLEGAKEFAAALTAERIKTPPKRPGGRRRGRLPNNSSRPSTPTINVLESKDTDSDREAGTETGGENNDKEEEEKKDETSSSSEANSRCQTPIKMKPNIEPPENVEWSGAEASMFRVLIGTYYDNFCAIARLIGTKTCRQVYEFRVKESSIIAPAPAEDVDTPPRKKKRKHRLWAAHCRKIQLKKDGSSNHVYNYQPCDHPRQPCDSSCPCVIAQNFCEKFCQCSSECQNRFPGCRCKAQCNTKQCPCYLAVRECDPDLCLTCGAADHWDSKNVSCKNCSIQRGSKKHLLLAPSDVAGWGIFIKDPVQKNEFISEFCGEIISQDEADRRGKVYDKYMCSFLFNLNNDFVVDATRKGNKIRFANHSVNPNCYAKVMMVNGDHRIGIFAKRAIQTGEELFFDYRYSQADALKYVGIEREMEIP
Chain of recombinant EZH2-641F complex (EZH2 Y641F/EED/SUZ12/RbAp48/AEBP2) (O75530 whole entry partner): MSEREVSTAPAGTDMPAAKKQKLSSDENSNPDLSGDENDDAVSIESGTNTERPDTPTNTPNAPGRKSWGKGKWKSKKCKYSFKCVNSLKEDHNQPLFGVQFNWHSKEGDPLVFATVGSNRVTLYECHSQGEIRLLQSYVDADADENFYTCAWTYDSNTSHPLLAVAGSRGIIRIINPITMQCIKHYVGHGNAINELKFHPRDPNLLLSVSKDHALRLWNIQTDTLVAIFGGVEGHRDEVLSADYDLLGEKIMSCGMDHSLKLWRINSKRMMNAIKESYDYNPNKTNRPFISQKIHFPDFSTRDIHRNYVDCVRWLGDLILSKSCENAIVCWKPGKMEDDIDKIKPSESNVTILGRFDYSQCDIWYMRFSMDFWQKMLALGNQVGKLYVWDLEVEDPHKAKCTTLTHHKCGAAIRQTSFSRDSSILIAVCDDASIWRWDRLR
Chain of recombinant EZH2-641F complex (EZH2 Y641F/EED/SUZ12/RbAp48/AEBP2) (Q15022 whole entry partner): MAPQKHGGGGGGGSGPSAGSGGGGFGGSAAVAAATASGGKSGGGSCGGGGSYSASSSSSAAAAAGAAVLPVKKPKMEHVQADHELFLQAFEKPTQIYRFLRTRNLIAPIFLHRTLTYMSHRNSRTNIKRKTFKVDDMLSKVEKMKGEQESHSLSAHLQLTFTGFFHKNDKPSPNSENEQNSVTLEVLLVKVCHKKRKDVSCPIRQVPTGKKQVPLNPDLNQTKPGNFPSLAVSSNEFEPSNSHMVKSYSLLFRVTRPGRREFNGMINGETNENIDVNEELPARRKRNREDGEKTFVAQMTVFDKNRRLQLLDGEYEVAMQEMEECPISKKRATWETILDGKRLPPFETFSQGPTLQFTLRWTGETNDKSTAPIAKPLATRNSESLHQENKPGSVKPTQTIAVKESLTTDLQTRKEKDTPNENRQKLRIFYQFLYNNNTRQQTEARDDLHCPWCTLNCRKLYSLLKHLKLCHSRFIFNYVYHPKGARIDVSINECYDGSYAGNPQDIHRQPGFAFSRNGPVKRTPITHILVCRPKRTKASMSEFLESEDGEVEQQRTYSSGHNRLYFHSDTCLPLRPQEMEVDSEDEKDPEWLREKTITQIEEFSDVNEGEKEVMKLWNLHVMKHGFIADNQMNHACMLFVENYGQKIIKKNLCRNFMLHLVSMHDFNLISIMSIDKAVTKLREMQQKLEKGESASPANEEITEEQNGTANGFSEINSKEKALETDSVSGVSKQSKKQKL
Chain of recombinant EZH2-641F complex (EZH2 Y641F/EED/SUZ12/RbAp48/AEBP2) (Q09028 whole entry partner): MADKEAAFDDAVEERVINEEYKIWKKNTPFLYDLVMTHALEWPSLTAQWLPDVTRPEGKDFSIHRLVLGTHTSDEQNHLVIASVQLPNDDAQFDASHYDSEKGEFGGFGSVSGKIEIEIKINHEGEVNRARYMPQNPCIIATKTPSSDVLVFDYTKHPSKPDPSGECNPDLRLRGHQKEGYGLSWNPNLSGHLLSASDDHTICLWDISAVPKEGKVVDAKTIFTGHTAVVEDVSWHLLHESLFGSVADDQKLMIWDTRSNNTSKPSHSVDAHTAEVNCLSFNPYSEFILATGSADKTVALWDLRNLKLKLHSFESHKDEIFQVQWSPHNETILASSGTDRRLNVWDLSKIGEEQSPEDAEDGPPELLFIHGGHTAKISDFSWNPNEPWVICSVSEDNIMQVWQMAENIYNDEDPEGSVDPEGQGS
Chain of recombinant EZH2-641F complex (EZH2 Y641F/EED/SUZ12/RbAp48/AEBP2) (Q6ZN18 whole entry partner): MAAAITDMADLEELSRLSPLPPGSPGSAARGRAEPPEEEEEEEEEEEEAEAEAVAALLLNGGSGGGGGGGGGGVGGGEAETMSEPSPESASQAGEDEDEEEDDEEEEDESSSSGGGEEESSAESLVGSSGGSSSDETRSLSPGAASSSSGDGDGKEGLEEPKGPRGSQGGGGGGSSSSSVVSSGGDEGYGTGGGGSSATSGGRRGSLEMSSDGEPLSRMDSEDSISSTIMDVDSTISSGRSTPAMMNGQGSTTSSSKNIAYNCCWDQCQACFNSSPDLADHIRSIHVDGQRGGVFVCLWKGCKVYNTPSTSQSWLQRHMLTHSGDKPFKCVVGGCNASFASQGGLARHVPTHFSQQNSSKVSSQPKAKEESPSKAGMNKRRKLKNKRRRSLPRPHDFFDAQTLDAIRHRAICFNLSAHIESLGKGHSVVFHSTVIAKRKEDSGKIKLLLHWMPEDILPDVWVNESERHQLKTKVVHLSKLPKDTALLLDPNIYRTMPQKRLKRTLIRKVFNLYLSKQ

This test addresses recombinant EZH2-641F complex (EZH2 Y641F/EED/SUZ12/RbAp48/AEBP2) (Homo sapiens (Human), UniProt Q15910, Y641F). Nature of the test: EZH2 Histone Methyl Transferase Assay (scintillation proximity assay). It counts as biochemical. The note with it: 350 nM histone peptide substrate, 500 nM 3H-SAM, 3 hours at room temperature. An excerpt: EZH2 Histone Methyl Transferase Assay
The effectiveness of compounds of the present invention as inhibitors of hitone methyl transferases can be readily tested by assays known to those skilled in the art. For example, in vitro histone methyl transferase assays may be conducted with a relevant purified histone methyl transferase and an appropriate synthetic substrate to determine the inhibitory activity of the compounds. […] Reaction products were captured by binding to strepavidin-conjugated imaging beads. Incorporation of radioactive methyl group into the histone peptide substrate was determined in Leadseeker (GE Healthcare) by means of scintiallation proximity assay. […] Compounds were dissolved at 10 mM in dimethylsulfoxide (DMSO) and evaluated at eleven concentrations. EC50 values were derived by non-linear regression analysis.
For orientation: Scintillation proximity formats need no separation of bound from free tracer.
Regarding `CCC(C)n1cc(C)c2c(C(=O)NCc3c(=O)[nH]c(C)c4ccccc34)cc(-c3ccc(N4CCN(C(=O)OC(C)(C)C)CC4)nc3)cc21` (stereo not shown) [Example 9, tert-Butyl 4-(5-(1-(sec-butyl)-3-methyl-4-(((1-methyl-3-oxo-2,3-dihydroisoquinolin-4-yl)methyl)carbamoyl)-1H-indol-6-yl)pyridin-2-yl)piperazine-1-carboxylate], the EC50 was ≤ 5 µM.
With `Cc1[nH]c(=O)c(CNC(=O)c2cc3c(c(-c4ccc(N5CCNCC5)nc4)c2)OC(C)(C)C3)c2ccccc12` [Example 17, 2,2-Dimethyl-N-((1-methyl-3-oxo-2,3-dihydroisoquinolin-4-yl)methyl)-7-(6-(piperazin-1-yl)pyridin-3-yl)-2,3-dihydrobenzofuran-5-carboxamide], the concentration for a half-maximal effect (EC50) is ≤ 5 µM.
Next, `CCC(C)n1cc(C)c2c(C(=O)NCc3c(=O)[nH]c(C)c4ccccc34)cc(-c3ccc(N4CCNCC4)nc3)cc21` (stereo not shown) [Example 10, 1-(sec-Butyl)-3-methyl-N-((1-methyl-3-oxo-2,3-dihydroisoquinolin-4-yl)methyl)-6-(6-(piperazin-1-yl)pyridin-3-yl)-1H-indole-4-carboxamide]: ≤ 0.5 µM.
With `CCN(c1cc(-c2ccc(CN3CCOCC3)cc2)cc(C(=O)NCC2C(=O)NC(C)c3cccc(F)c32)c1C)C1CCOCC1` (stereo not shown) [Example 5, 5-(Ethyl(tetrahydro-2H-pyran-4-yl)amino)-N-((5-fluoro-1-methyl-3-oxo-1,2,3,4-tetrahydroisoquinolin-4-yl)methyl)-4-methyl-4′-(morpholinomethyl)-[1,1′-biphenyl]-3-carboxamide], the EC50 was ≤ 5 µM.

(Values after patent US9738630B2, “Inhibitors of lysine methyl transferase” (BRISTOL-MYERS SQUIBB COMPANY, priority 2013, dated 2017).)
